Reference: publication PMC10095747, “Modulatory Effects of Atractylodin and β-Eudesmol on Human Cytochrome P450 Enzymes: Potential Drug-Drug Interactions” (Molecules, 2023)
Where two headings read alike, the source gives them in different places.

Experiments:
mCYP1A2 mRNA = test: ex vivo mCYP1A2 mRNA expression in mouse livers (real-time PCR); details: male ICR mice, daily oral 100 mg/kg body weight, vs control
From the text: (§1) Eight-week-old male ICR (Imprinting Control Region) mice weighing 35–40 g were used to investigate the modulatory effects of atractylodin and β-eudesmol on mCYP1A2 and mCYP3A11. The study protocol was approved by the Ethics Committee for Animal Research at Thammasat University (protocol number 016/2020). All animals were obtained from Nomura Siam International Co., Ltd. (Bangkok, Thailand). The animals were acclimatized for one week before the experiments. A total of 36 mice were allocated to three groups (i) control group (3 mice), (ii) atractylodin-treated group, and (iii) β-eudesmol-treated group. For atractylodin and β-eudesmol-treated groups, animals were fed with 100 mg/kg body weight of each compound for 1, 7, 14, and 21 (3 mice for each dose). Experiments were performed under the guidelines for the care and use of laboratory animals in a controlled environment of 12 h dark/light cycle, temperature 22 ± 2 °C, and relative humidity 30–70% at the Thammasat University Animal Center. Animals were observed daily for changes in signs and symptoms by a veterinarian. Mice were allowed access to the food pellets and water ad libitum.
(§2) Total mRNA was extracted from mouse livers using Trizol according to the manufacturer’s instructions. The concentration of mRNA was quantified by a nanodrop spectrophotometer. The First-Strand cDNA Synthesis Kit was used to generate cDNA from RNA. The CFX96 Touch Real-Time PCR Detection System was used to determine the expressions of mCYP1A2, mCYP3A11, and β-actin genes using the iTaq Universal SYBR Green Supermix. The PCR condition and the delta-delta Ct calculation were according to the previously described article. All primers used in this study were synthesized by Gibthai Co. Ltd. (Bangkok, Thailand).

rCYP1A2 = biological target: T1, rCYP1A2 (Homo sapiens, UniProt P05177); test: luminogenic P450-Glo CYP450 inhibition assay, rCYP1A2; details: three independent experiments
T1 sequence (P05177 1-516): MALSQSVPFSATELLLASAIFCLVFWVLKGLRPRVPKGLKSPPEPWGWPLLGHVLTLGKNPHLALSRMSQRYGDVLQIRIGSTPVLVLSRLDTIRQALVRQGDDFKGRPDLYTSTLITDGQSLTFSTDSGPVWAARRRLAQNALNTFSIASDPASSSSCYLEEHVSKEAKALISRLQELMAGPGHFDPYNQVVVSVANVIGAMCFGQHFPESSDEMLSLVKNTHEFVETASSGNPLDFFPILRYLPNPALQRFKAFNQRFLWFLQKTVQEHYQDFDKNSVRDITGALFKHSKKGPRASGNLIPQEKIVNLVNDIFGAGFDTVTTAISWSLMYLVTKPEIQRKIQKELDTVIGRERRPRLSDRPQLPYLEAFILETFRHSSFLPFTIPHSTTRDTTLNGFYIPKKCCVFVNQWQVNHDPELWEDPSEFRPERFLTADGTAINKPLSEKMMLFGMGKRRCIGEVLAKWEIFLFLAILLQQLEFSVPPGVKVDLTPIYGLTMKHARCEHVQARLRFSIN
From the text: (§3) The luminescent cytochrome P450 assay was used to determine CYP450-mediated (CYP1A2, 2C9, 2C19, 2D6, and 3A4) metabolism of atractylodin and β-eudesmol. The assay consisted of each recombinant human CYP450 (rCYP450), control membranes lacking P450 activity, a luminogenic CYP450 substrate (luciferin-ME substrate for rCYP1A2, luciferin-H substrate for rCYP2C9, luciferin-H EGE substrate for rCYP2C19, luciferin-ME EGE substrate for rCYP2D6, and luciferin-IPA substrate for rCYP3A4), KPO4 buffer, luciferin free water, NADPH regeneration system, and a luciferin detection reagent. The rCYP450 enzymes were generated from a baculovirus-infected insect cell expression system. The concentrations of the recombinant CYPs used were 0.5 (rCYP1A2 and rCYP2C9), 0.25 (rCYP2C19 and rCYP2D6) or 0.2 (rCYP3A4) pmol (0.5μL) per reaction. […] A luciferin product was produced after adding 25 µL of NADPH Regeneration System (solution A, solution B, and luciferin-free water) and incubated at 37 °C for 10 (rCYP1A2 and rCYP3A4), 20 (rCYP2C19 and rCYP2C9) or 30 (rCYP2D6) minutes. The reaction was stopped and converted to a luminescent signal after adding Luciferin Detection Reagent (50 µL) and incubated at 25 °C for 20 min. The luminescence signals obtained were determined using a Varioskan® Flash microplate reader (Waltham, MA, USA). The magnitude of luminescence in all of the samples represented CYP450 activity. […] All stock solutions were diluted with luciferin-free water until the final concentration of organic solvent was less than 0.25% (v/v) of the total reaction. The concentration range of atractylodin and β-eudesmol used were 2.74–686 µM and 2.25–562 µM, respectively. […] The concentration that inhibited the activity of each rCYP450 by 50% (IC50) was calculated using Calcusyn software (Cambridge, UK). Data are reported as the median (range) of the three independent experiments.

rCYP2D6 = rCYP2D6 (Homo sapiens, UniProt P10635); test: luminogenic P450-Glo CYP450 inhibition assay, rCYP2D6; details: three independent experiments
Sequence of rCYP2D6 (P10635 whole entry): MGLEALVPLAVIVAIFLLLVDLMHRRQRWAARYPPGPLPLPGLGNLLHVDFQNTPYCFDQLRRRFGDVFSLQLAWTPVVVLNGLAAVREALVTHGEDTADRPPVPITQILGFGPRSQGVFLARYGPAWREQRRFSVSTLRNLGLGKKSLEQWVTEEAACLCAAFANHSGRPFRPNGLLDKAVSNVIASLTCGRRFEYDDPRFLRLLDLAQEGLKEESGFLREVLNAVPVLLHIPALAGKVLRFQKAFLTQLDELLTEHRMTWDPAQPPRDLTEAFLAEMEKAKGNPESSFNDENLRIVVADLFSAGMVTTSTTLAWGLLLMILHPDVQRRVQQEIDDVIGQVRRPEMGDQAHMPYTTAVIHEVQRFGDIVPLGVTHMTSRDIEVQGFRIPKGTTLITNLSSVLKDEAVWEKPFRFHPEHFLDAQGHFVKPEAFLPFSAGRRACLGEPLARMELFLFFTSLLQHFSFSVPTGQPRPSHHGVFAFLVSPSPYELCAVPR
From the text: as §3

mCYP3A11 mRNA = test: ex vivo mCYP3A11 mRNA expression in mouse livers (real-time PCR); details: male ICR mice, daily oral 100 mg/kg body weight, vs control
From the text: as §1, §2

rCYP3A4 = rCYP3A4 (Homo sapiens, UniProt P08684); test: luminogenic P450-Glo CYP450 inhibition assay, rCYP3A4; details: three independent experiments
Sequence of rCYP3A4 (P08684 whole entry): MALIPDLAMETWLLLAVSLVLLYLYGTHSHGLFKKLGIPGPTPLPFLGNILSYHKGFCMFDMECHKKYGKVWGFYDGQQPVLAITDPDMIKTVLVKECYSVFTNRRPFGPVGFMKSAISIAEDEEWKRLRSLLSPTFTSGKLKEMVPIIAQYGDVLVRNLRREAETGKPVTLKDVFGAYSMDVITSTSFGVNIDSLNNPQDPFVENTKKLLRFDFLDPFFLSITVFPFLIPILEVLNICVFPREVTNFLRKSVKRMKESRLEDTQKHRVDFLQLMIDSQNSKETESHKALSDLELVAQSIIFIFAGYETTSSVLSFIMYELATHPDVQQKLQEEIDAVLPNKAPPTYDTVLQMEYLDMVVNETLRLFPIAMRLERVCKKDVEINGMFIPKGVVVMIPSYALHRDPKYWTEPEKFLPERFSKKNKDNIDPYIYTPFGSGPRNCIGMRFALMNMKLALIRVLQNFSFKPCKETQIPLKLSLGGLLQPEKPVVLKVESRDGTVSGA
From the text: as §3

## C/C=C/C#CC#C/C=C/c1ccco1 [Atractylodin]
mCYP1A2 mRNA; 1 day, 100 mg/kg
  Fold-changes of mCYP1A2 mRNA levels: 1.6 fold
mCYP1A2 mRNA; 1 day, listed as Atactylodin, 100 mg/kg
  Fold-changes of mCYP1A2 mRNA levels: 1.60 fold
mCYP1A2 mRNA; 7 days, 100 mg/kg
  Fold-changes of mCYP1A2 mRNA levels: 1.2 fold
mCYP1A2 mRNA; 7 days, listed as Atactylodin, 100 mg/kg
  Fold-changes of mCYP1A2 mRNA levels: 1.20 fold
mCYP1A2 mRNA; 14 days
  Fold-changes of mCYP1A2 mRNA levels: 0.89 fold
mCYP1A2 mRNA; 21 days
  Fold-changes of mCYP1A2 mRNA levels: 0.71 fold
rCYP1A2; median (range)
  Median IC50 (Range) rCYP1A2: 90.6 (83.8–102.3) µg/ml
rCYP1A2; read-out: Median IC50 (Range) rCYP1A2, median (range)
  IC50: 497 µM
rCYP2D6; median (range)
  Median IC50 (Range) rCYP2D6: >125 mg/L
rCYP2D6; read-out: Median IC50 (Range) rCYP2D6, median (range)
  IC50: > 686 µM
mCYP3A11 mRNA; 1 day
  Fold-changes of mCYP3A11 mRNA levels: 1.72 fold
mCYP3A11 mRNA; 7 days
  Fold-changes of mCYP3A11 mRNA levels: 1.3 fold
mCYP3A11 mRNA; 14 days
  Fold-changes of mCYP3A11 mRNA levels: 0.87 fold
mCYP3A11 mRNA; 21 days
  Fold-changes of mCYP3A11 mRNA levels: 0.62 fold
rCYP3A4; median (range)
  Median IC50 (Range) rCYP3A4: >125 mg/L
rCYP3A4; read-out: Median IC50 (Range) rCYP3A4, median (range)
  IC50: > 686 µM

## C=C1CCC[C@]2(C)CC[C@@H](C(C)(C)O)C[C@@H]12 [β-Eudesmol]
mCYP1A2 mRNA; 1 day
  Fold-changes of mCYP1A2 mRNA levels: 2.63 fold
mCYP1A2 mRNA; 7 days
  Fold-changes of mCYP1A2 mRNA levels: 1.44 fold
mCYP1A2 mRNA; 14 days
  Fold-changes of mCYP1A2 mRNA levels: 1.37 fold
mCYP1A2 mRNA; 21 days
  Fold-changes of mCYP1A2 mRNA levels: 0.91 fold
rCYP1A2; Median IC50 (Range) rCYP1A2, median (range)
  IC50: > 562 µM
rCYP2D6; Median IC50 (Range) rCYP2D6, median (range)
  IC50: > 562 µM
mCYP3A11 mRNA; 1 day, 100 mg/kg
  Fold-changes of mCYP3A11 mRNA levels: 2.18 fold
mCYP3A11 mRNA; 7 days, 100 mg/kg
  Fold-changes of mCYP3A11 mRNA levels: 1.5 fold
mCYP3A11 mRNA; 7 days, listed as β‐eudesmol, 100 mg/kg
  Fold-changes of mCYP3A11 mRNA levels: 1.50 fold
mCYP3A11 mRNA; 14 days
  Fold-changes of mCYP3A11 mRNA levels: 0.96 fold
mCYP3A11 mRNA; 21 days
  Fold-changes of mCYP3A11 mRNA levels: 0.78 fold
rCYP3A4; Median IC50 (Range) rCYP3A4, median (range)
  IC50: 219 µM
